Assay results as given in PubChem BioAssay (NCI).
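Exposure lasted 48 hours, with cells grown in 96-well plates and compounds tested at five concentrations. TGI: concentration producing complete growth inhibition.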

Key:
Assay in all cases: NCI tumour cell line growth inhibition, 48 h
DU-145 prostate = system: DU-145 prostate
ACHN renal = system: ACHN renal
SF-295 CNS = system: SF-295 CNS
UO-31 renal = system: UO-31 renal
U251 CNS = system: U251 CNS
MALME-3M melanoma = system: MALME-3M melanoma
HS 578T breast = system: HS 578T breast
SR leukemia = system: SR leukemia
OVCAR-4 ovarian = system: OVCAR-4 ovarian
RXF 393 renal = system: RXF 393 renal
HCC-2998 colon = system: HCC-2998 colon
A549 NSCLC = system: A549 NSCLC
HOP-62 NSCLC = system: HOP-62 NSCLC
SK-MEL-5 melanoma = system: SK-MEL-5 melanoma
OVCAR-3 ovarian = system: OVCAR-3 ovarian
CCRF-CEM leukemia = system: CCRF-CEM leukemia
KM12 colon = system: KM12 colon
NCI-H460 lung = system: NCI-H460 lung
LOX IMVI melanoma = system: LOX IMVI melanoma
NCI-H522 lung = system: NCI-H522 lung
HCT-116 colon = system: HCT-116 colon
M14 melanoma = system: M14 melanoma
SK-MEL-2 melanoma = system: SK-MEL-2 melanoma
IGROV1 ovarian = system: IGROV1 ovarian
T-47D breast = system: T-47D breast
786-0 renal = system: 786-0 renal
BT-549 breast = system: BT-549 breast
UACC-62 melanoma = system: UACC-62 melanoma
SK-OV-3 ovarian = system: SK-OV-3 ovarian
HCT-15 colon = system: HCT-15 colon
SN12C renal = system: SN12C renal
MDA-MB-435 = system: MDA-MB-435
MDA-MB-231 breast = system: MDA-MB-231 breast
SW-620 colon = system: SW-620 colon
K-562 leukemia = system: K-562 leukemia
EKVX NSCLC = system: EKVX NSCLC
HOP-92 NSCLC = system: HOP-92 NSCLC
HT29 colon = system: HT29 colon
MCF7 breast = system: MCF7 breast
NCI-H23 lung = system: NCI-H23 lung
UACC-257 melanoma = system: UACC-257 melanoma
CAKI-1 renal = system: CAKI-1 renal
SNB-19 CNS = system: SNB-19 CNS
A498 renal = system: A498 renal
MDA-N = system: MDA-N
NCI/ADR-RES ovarian = system: NCI/ADR-RES ovarian
SK-MEL-28 melanoma = system: SK-MEL-28 melanoma
HL-60(TB) leukemia = system: HL-60(TB) leukemia
SNB-75 CNS = system: SNB-75 CNS
OVCAR-8 ovarian = system: OVCAR-8 ovarian
TK-10 renal = system: TK-10 renal
OVCAR-5 ovarian = system: OVCAR-5 ovarian
SF-268 CNS = system: SF-268 CNS
RPMI-8226 leukemia = system: RPMI-8226 leukemia
COLO 205 colon = system: COLO 205 colon
PC-3 prostate = system: PC-3 prostate
SF-539 CNS = system: SF-539 CNS
NCI-H226 lung = system: NCI-H226 lung
MOLT-4 leukemia = system: MOLT-4 leukemia

In the case of C/C(=N\O)c1ccc2cc(Br)c3ccccc3c2c1, the TGI (DU-145 prostate) is reported as > 100 µM, the TGI (ACHN renal) is reported as > 100 µM and the TGI (SF-295 CNS) is reported as 37.5 µM. The TGI (UO-31 renal) was 36.7 µM, the TGI (U251 CNS) was 28.7 µM and the TGI (MALME-3M melanoma) was 35.3 µM. For the same compound, the TGI (HS 578T breast) was 88.2 µM, the TGI (SR leukemia) was > 100 µM and the TGI (OVCAR-4 ovarian) was > 100 µM. The TGI (RXF 393 renal) was 31.9 µM, the TGI (HCC-2998 colon) was 29.7 µM and the TGI (A549 NSCLC) was > 100 µM. For the same compound, the TGI (HOP-62 NSCLC) was 46.8 µM, the TGI (SK-MEL-5 melanoma) was 32 µM and the TGI (OVCAR-3 ovarian) was 33.3 µM. The TGI (CCRF-CEM leukemia) was 61.1 µM, the TGI (KM12 colon) was 32.6 µM and the TGI (NCI-H460 lung) was 43.2 µM. The TGI (LOX IMVI melanoma) was 32.8 µM, the TGI (NCI-H522 lung) was 33 µM and the TGI (HCT-116 colon) was 25.8 µM. For the same compound, the TGI (M14 melanoma) was 41.2 µM, the TGI (SK-MEL-2 melanoma) was 32 µM and the TGI (IGROV1 ovarian) was > 100 µM. It also gave a TGI (T-47D breast) of 93.3 µM, a TGI (786-0 renal) of 43 µM and a TGI (BT-549 breast) of 64 µM. The TGI (UACC-62 melanoma) was 47.2 µM, the TGI (SK-OV-3 ovarian) was > 100 µM and the TGI (HCT-15 colon) was 34.7 µM. It also gave a TGI (SN12C renal) of 48.3 µM, a TGI (MDA-MB-435) of 69.9 µM and a TGI (MDA-MB-231 breast) of 32.1 µM. The TGI (SW-620 colon) was > 100 µM, the TGI (K-562 leukemia) was > 100 µM and the TGI (EKVX NSCLC) was 45.9 µM. The TGI (HOP-92 NSCLC) was 46.6 µM, the TGI (HT29 colon) was 20.5 µM and the TGI (MCF7 breast) was 35.2 µM. The TGI (NCI-H23 lung) was 44.4 µM, the TGI (UACC-257 melanoma) was 33.2 µM and the TGI (CAKI-1 renal) was > 100 µM. The TGI (SNB-19 CNS) was > 100 µM, the TGI (A498 renal) was 35.4 µM and the TGI (MDA-N) was 43.6 µM. The TGI (NCI/ADR-RES ovarian) was 47.5 µM, the TGI (SK-MEL-28 melanoma) was 42.6 µM and the TGI (HL-60(TB) leukemia) was 44.7 µM. For the same compound, the TGI (SNB-75 CNS) was > 100 µM, the TGI (OVCAR-8 ovarian) was 60.9 µM and the TGI (TK-10 renal) was 39.8 µM. For the same compound, the TGI (OVCAR-5 ovarian) was 25.8 µM, the TGI (SF-268 CNS) was > 100 µM and the TGI (RPMI-8226 leukemia) was 50.9 µM.

In the case of C=CCCC1CCCNC1=S (stereo not given), the TGI (DU-145 prostate) is reported as > 100 µM, the TGI (ACHN renal) is reported as > 100 µM and the TGI (SF-295 CNS) is reported as > 100 µM. For the same compound, the TGI (UO-31 renal) was > 100 µM, the TGI (U251 CNS) was > 100 µM and the TGI (HS 578T breast) was > 100 µM. For the same compound, the TGI (OVCAR-4 ovarian) was > 100 µM, the TGI (RXF 393 renal) was > 100 µM and the TGI (COLO 205 colon) was > 100 µM. The TGI (HCC-2998 colon) was > 100 µM, the TGI (A549 NSCLC) was > 100 µM and the TGI (HOP-62 NSCLC) was > 100 µM. For the same compound, the TGI (SK-MEL-5 melanoma) was > 100 µM, the TGI (NCI-H460 lung) was > 100 µM and the TGI (NCI-H522 lung) was > 100 µM. The TGI (HCT-116 colon) was > 100 µM, the TGI (M14 melanoma) was > 100 µM and the TGI (SK-MEL-2 melanoma) was > 100 µM. For the same compound, the TGI (IGROV1 ovarian) was > 100 µM, the TGI (T-47D breast) was > 100 µM and the TGI (786-0 renal) was > 100 µM. The TGI (BT-549 breast) was > 100 µM, the TGI (UACC-62 melanoma) was > 100 µM and the TGI (SK-OV-3 ovarian) was > 100 µM. For the same compound, the TGI (HCT-15 colon) was > 100 µM, the TGI (SN12C renal) was > 100 µM and the TGI (MDA-MB-435) was > 100 µM. The TGI (MDA-MB-231 breast) was > 100 µM, the TGI (SW-620 colon) was > 100 µM and the TGI (K-562 leukemia) was > 100 µM. The TGI (EKVX NSCLC) was > 100 µM, the TGI (HOP-92 NSCLC) was > 100 µM and the TGI (HT29 colon) was > 100 µM. The TGI (PC-3 prostate) was > 100 µM, the TGI (MCF7 breast) was > 100 µM and the TGI (NCI-H23 lung) was > 100 µM. The TGI (UACC-257 melanoma) was > 100 µM, the TGI (CAKI-1 renal) was > 100 µM and the TGI (SNB-19 CNS) was > 100 µM. For the same compound, the TGI (A498 renal) was > 100 µM, the TGI (MDA-N) was > 100 µM and the TGI (SF-539 CNS) was > 100 µM. For the same compound, the TGI (NCI-H226 lung) was > 100 µM, the TGI (SK-MEL-28 melanoma) was > 100 µM and the TGI (SNB-75 CNS) was > 100 µM. The TGI (OVCAR-8 ovarian) was > 100 µM, the TGI (TK-10 renal) was > 100 µM and the TGI (OVCAR-5 ovarian) was > 100 µM. For the same compound, the TGI (SF-268 CNS) was > 100 µM and the TGI (RPMI-8226 leukemia) was > 100 µM.

For COc1ccccc1N1C(=O)/C(=C\c2cc(OC)c(OC)c(OC)c2)SC1c1ccccc1 (stereo not given), the TGI (DU-145 prostate) was > 100 µM, the TGI (ACHN renal) was > 100 µM and the TGI (SF-295 CNS) was > 100 µM. The TGI (UO-31 renal) was > 100 µM, the TGI (U251 CNS) was > 100 µM and the TGI (MALME-3M melanoma) was 81.4 µM. For the same compound, the TGI (HS 578T breast) was > 100 µM, the TGI (SR leukemia) was 72.7 µM and the TGI (OVCAR-4 ovarian) was > 100 µM. The TGI (RXF 393 renal) was > 100 µM, the TGI (COLO 205 colon) was > 100 µM and the TGI (HCC-2998 colon) was > 100 µM. For the same compound, the TGI (A549 NSCLC) was > 100 µM, the TGI (HOP-62 NSCLC) was > 100 µM and the TGI (SK-MEL-5 melanoma) was > 100 µM. For the same compound, the TGI (OVCAR-3 ovarian) was > 100 µM, the TGI (CCRF-CEM leukemia) was 45.5 µM and the TGI (KM12 colon) was > 100 µM. For the same compound, the TGI (NCI-H460 lung) was > 100 µM, the TGI (LOX IMVI melanoma) was > 100 µM and the TGI (NCI-H522 lung) was > 100 µM. For the same compound, the TGI (HCT-116 colon) was > 100 µM, the TGI (M14 melanoma) was 91.7 µM and the TGI (SK-MEL-2 melanoma) was > 100 µM. The TGI (T-47D breast) was > 100 µM, the TGI (786-0 renal) was > 100 µM and the TGI (BT-549 breast) was > 100 µM. The TGI (UACC-62 melanoma) was > 100 µM, the TGI (SK-OV-3 ovarian) was > 100 µM and the TGI (HCT-15 colon) was > 100 µM. The TGI (SN12C renal) was > 100 µM, the TGI (MDA-MB-435) was 53.5 µM and the TGI (MDA-MB-231 breast) was > 100 µM. For the same compound, the TGI (SW-620 colon) was > 100 µM, the TGI (K-562 leukemia) was 38.2 µM and the TGI (EKVX NSCLC) was > 100 µM. For the same compound, the TGI (HOP-92 NSCLC) was > 100 µM, the TGI (HT29 colon) was > 100 µM and the TGI (MCF7 breast) was > 100 µM. For the same compound, the TGI (NCI-H23 lung) was > 100 µM, the TGI (UACC-257 melanoma) was > 100 µM and the TGI (CAKI-1 renal) was > 100 µM. For the same compound, the TGI (SNB-19 CNS) was > 100 µM, the TGI (A498 renal) was > 100 µM and the TGI (MDA-N) was 42.5 µM. The TGI (SF-539 CNS) was > 100 µM, the TGI (NCI/ADR-RES ovarian) was > 100 µM and the TGI (NCI-H226 lung) was > 100 µM. The TGI (SK-MEL-28 melanoma) was > 100 µM, the TGI (HL-60(TB) leukemia) was > 100 µM and the TGI (OVCAR-8 ovarian) was > 100 µM. For the same compound, the TGI (TK-10 renal) was > 100 µM, the TGI (OVCAR-5 ovarian) was > 100 µM and the TGI (SF-268 CNS) was > 100 µM. For the same compound, the TGI (MOLT-4 leukemia) was > 100 µM and the TGI (RPMI-8226 leukemia) was 25.4 µM.
